Data published in PMC11928584, “H105A peptide eye drops promote photoreceptor survival in murine and human models of retinal degeneration” (Communications Medicine, 2025).
Where a SMILES comes first, the peptide text is derived from it.

How the values were obtained:
Assay type in all cases: in vivo, mouse
[1] = test system: photoreceptors of rd10 mice; assay: PSVue-550 fluorescence fundoscopy of photoreceptor cell death (PS externalization); settings: daily eye drops 5 µl of 1 mg/ml from P15, PSVue-550 fundoscopy P21
Source text: (§1) Fluorescence fundoscopy with a cell death probe was chosen as a simple method for monitoring photoreceptor cell death in alive animals. A fluorescent probe, bis (zinc^2+-dipicolylamine)-550, (PSVue®-550) (Molecular Targeting Technologies Inc, cat. P-1005) was reconstituted in Hanks’ Balanced Salt Solution (HBSS, Quality Biological, cat. 114-062-101) according to the manufacturer’s instructions[28],[36]. This probe is suitable for in vivo use to specifically and transiently label dying photoreceptors, such as in living rats with retinal degeneration the Royal College of Surgeons rat model, in a non-invasive and non-toxic method without the need of intraocular injection. Briefly, a stock of 1 mM solution of PSVue®-550 was stored in the dark at 4 °C and used within 14 days directly as eye drop. After 3-4 h of light onset each mouse received eye drops of 5–10 μl of 1 mM PSVue®-550 in the left eye and HBSS in the right eye as control. The eye drop volume was chosen such that the eye cavity was filled without spillage outside the eye, and it was modified depending on eye size. […] To obtain in vivo retinal images of fundi, at 24 h after the probe was administered, the mice were anesthetized, and pupils were dilated with 1% tropicamide for 5 min and kept hydrated with GenTeal. Fluorescence was imaged using a retinal imaging microscope (Micron III, Phoenix Research Labs) using an FF02- 475/50 nm excitation filter (Semrock, Inc.). We observed some variability in optic nerve (ON) fluorescence that could not be readily explained, so the optic nerve was excluded from analyses in all samples.
(§2) To determine the natural history of photoreceptor death of rd10 and rd10/Serpinf1^-/- mice, we assessed photoreceptor cell death in live mice using the fluorescent probe termed PSVue® 550 to monitor PS externalization by fluorescence fundoscopy (Supplementary Fig. 2). Given the reports about the retinas of rd10 mice starting to show histological changes at P16, and with a peak in the number of TUNEL+ nuclei in the ONL at P17-18[13], we monitored PS externalization in photoreceptors of these mice undergoing degeneration before death onset. Eye drops of 1 mM PSVue® 550 solution in HBSS were administered to left eyes and HBSS (vehicle) to their contralateral right eyes of each mouse at ages P16, P20, P22 or P24. PS externalization was determined by fluorescence fundoscopy 24 h post-administration. PSVue labeling of phosphatidylserine (PS) externalization associated with photoreceptor cell death in the rd10 retina (Supplementary Figs. 2, 3).
(§3) Fig. 2 Effect of PEDF peptide eye drops on protection against photoreceptor cell death in rd10 and rd10/Serpinf1^-/- mice. a Illustration of the experimental timeline of peptide application. Eye drops containing 5 µl of 17-mer, H105A, or R99A peptides in HBSS were administered daily to eyes of rd10 and rd10/Serpinf1^-/- mice from P15 to P20. Vehicle (HBSS) was applied in contralateral eyes. At P20, PSVue® was applied via eye drops, and fluorescence fundoscopy was conducted at P21 to assess photoreceptor cell death. RE and LE refer to the right and left eyes, respectively. b Fluorescence fundoscopy micrographs. Representative fluorescence fundoscopy images of retinas from mice treated as in Panel a with eyedrops of 1 mg/ml of each peptide. Quantification of fluorescence intensity was performed using ImageJ, with average intensity values corrected for background fluorescence from eyes that had not received PSVue or peptides. Each line represents data from one animal comparing treated and contralateral eyes, with five eyes (n = 5) per condition. Statistical significance was determined by paired t-test (****p ≤ 0.0001, and ns > 0.05). Scale bar = 0.5 mm. c Dose response of peptide eye drops. Representative fluorescence fundoscopy micrographs showing retinas treated with varying concentrations of 17-mer and H105A peptides (0.0 mg/ml to 1.0 mg/ml) in rd10 and rd10/Serpinf1^-/- mice. […]

[2] = test system: photoreceptors of rd10/Serpinf1-/- mice; assay: as above; settings: daily eye drops 5 µl of 1 mg/ml from P15, PSVue-550 fundoscopy P21
Source text: as §1, §2, §3

[3] = test system: retinal function of rd10 mice; assay: Electroretinogram (scotopic a- and b-wave), rd10 mice; settings: daily eye drops of labeled peptide P15-P20, ERG P21, n=3
Procedure: Electroretinogram (ERG) for rd10 and rd10/Serpinf1^-/- mice were dark-adapted overnight and recorded in both eyes of each animal using an Espion E2 system with ColorDome (Diagnosys LLC) with a heated surface. Briefly, pupils were dilated with 1% tropicamide (Akorn, NDC: 17478-101-12) for 10 min and mice were anesthetized with intraperitoneal injection of Zetamine™ (Ketamine hydrochloride injection, USP; VetOne, NDC 13985-584-10) at 92.5 mg/kg, and AnaSed® (xylazine injection, Akorn Pharmaceuticals, NDC 59399-110-20) at 5.5 mg/kg. Mice were placed on the heated surface and electrodes were placed in the mouth and a subdermal platinum needle electrode was placed in the back of the mouse to serve as ground. Responses were elicited with increasing light impulses with intensity from 0.0001 to 10 cd-seconds per meter squared (cd.s/m^2). Amplitudes for a-wave were measured from stimulus to the trough of the a-wave and b-wave amplitudes were measured from a-wave to b-wave trough or peak. The values from the a and b waves for both eyes were exported to Microsoft Excel to obtained amplitude values for each mouse.
Fig. 5 Effect of daily eyedrops of PEDF peptides on ERG a-wave and b-wave retinal function. a Illustration of the experimental timeline of peptide application. RE and LE refer to the right and left eyes, respectively. Representative ERG waveforms for rd10 (b) and rd10/Serpinf1^-/- (c) mice at P21 in response to a light flash (1 cd.s/m²). Amplitude (y-axis) is plotted against time in milliseconds (ms, x-axis). Treatments are indicated to the right of each plot and are color coded, with control wild type C57BL/6 J mice without peptide treatment shown in blue. A-wave and b-wave are indicated by arrows. Photoreceptor a-wave amplitudes. Averages of photoreceptor a-wave amplitudes for rd10 (d) and rd10/Serpinf1^-/- (e) mice as a function of light intensity (cd/s.m², x-axis). Responses of animals treated with 17-mer are shown in green, H105A in black, and vehicle (HBSS) in red. Wildtype responses are shown in blue. Bipolar cell b-wave amplitudes. Averages of bipolar cell b-wave amplitudes for rd10 (f) and rd10/Serpinf1^-/- (g) mice as a function of light intensity (cd/s.m², x-axis), with treatments as indicated in panels. The number of mice evaluated for the data shown in Panels d-g was five (n = 5) for each rd10, rd10/Serpinf1^-/- and wild type. Each data point represents the average ± SD of each genotype, analyzed by ANOVA with Dunnett’s multiple comparisons. Statistical significance between H105A and vehicle is indicated by ##p ≤ 0.01, ###p ≤ 0.001, ####p ≤ 0.0001, and between H105A and 17-mer by **p ≤ 0.01, ***p ≤ 0.001, ****p ≤ 0.0001.

Row | Compound | ERG a-wave and b-wave retinal function [3] | PS externalization / photoreceptor cell death vs vehicle [1] | PS externalization / photoreceptor cell death vs vehicle [2]
1 | CC[C@H](C)[C@H](NC(=O)[C@H](CC(=O)O)NC(=O)[C@@H]1CCCN1C(=O)[C@H](CO)NC(=O)[C@H](CO)NC(=O)[C@@H](NC(=O)[C@H](CC(C)C)NC(=O)[C@H](CC(=O)O)NC(=O)[C@H](Cc1ccc(O)cc1)NC(=O)[C@H](Cc1ccc(O)cc1)NC(=O)[C@H](CC(C)C)NC(=O)[C@H](C)NC(=O)[C@H](CCCNC(=N)N)NC(=O)[C@H](C)NC(=O)[C@@H](NC(=O)[C@@H](NC(=O)[C@H](CO)NC(=O)[C@H](CCC(=O)O)NC(=O)[C@@H](NC(=O)[C@H](CCCNC(=N)N)NC(=O)[C@H](CCC(N)=O)NC(=O)[C@H](CCC(=O)O)NC(=O)[C@H](C)NC(=O)CNC(=O)[C@H](CC(C)C)NC(=O)[C@@H](N)CO)[C@@H](C)O)[C@@H](C)CC)[C@@H](C)CC)[C@@H](C)CC)C(=O)N[C@@H](Cc1c[nH]cn1)C(=O)NCC(=O)N[C@H](C(=O)O)[C@@H](C)O [29-mer[H105A]] (H-SLGAEQRTESIIARALYYDLISSPDIHGT-OH) |  | no reduction in photoreceptor cell death | no reduction in photoreceptor cell death
2 | CC[C@H](C)[C@H](NC(=O)[C@H](CC(=O)O)NC(=O)[C@@H]1CCCN1C(=O)[C@H](CO)NC(=O)[C@H](CO)NC(=O)[C@@H](NC(=O)[C@H](CC(C)C)NC(=O)[C@H](CC(=O)O)NC(=O)[C@H](Cc1ccc(O)cc1)NC(=O)[C@H](Cc1ccc(O)cc1)NC(=O)[C@H](CC(C)C)NC(=O)[C@H](C)NC(=O)[C@H](CCCNC(=N)N)NC(=O)[C@H](Cc1c[nH]cn1)NC(=O)[C@@H](NC(=O)[C@@H](NC(=O)[C@H](CO)NC(=O)[C@H](CCC(=O)O)NC(=O)[C@@H](NC(=O)[C@H](CCCNC(=N)N)NC(=O)[C@H](CCC(N)=O)NC(=O)[C@H](CCC(=O)O)NC(=O)[C@H](C)NC(=O)CNC(=O)[C@H](CC(C)C)NC(=O)[C@@H](N)CO)[C@@H](C)O)[C@@H](C)CC)[C@@H](C)CC)[C@@H](C)CC)C(=O)N[C@@H](Cc1c[nH]cn1)C(=O)NCC(=O)N[C@H](C(=O)O)[C@@H](C)O [29-mer] (H-SLGAEQRTESIIHRALYYDLISSPDIHGT-OH) |  | no reduction in photoreceptor cell death | no reduction in photoreceptor cell death

Further lines, with some results ahead:

Row | ERG a-wave and b-wave retinal function [3] | Compound | PS externalization / photoreceptor cell death vs vehicle [1] | PS externalization / photoreceptor cell death vs vehicle [2]
3 | showed no improvement | AlexaFl-QATESIIHRALYYDLIS-COOH [AlexaFl-488-R99A, R99A peptide conjugated to Alexa Fluor 488 dye] |  | 
4 | improved retinal function | AlexaFl-QRTESIIARALYYDLIS-COOH [AlexaFl-488-H105A, H105A peptide conjugated to Alexa Fluor 488 dye] |  | 
5 | improved retinal function | AlexaFl-QRTESIIHRALYYDLIS-COOH [AlexaFl-488-17-mer, 17-mer peptide conjugated to Alexa Fluor 488 dye] |  | 
